This note sets out measurements from patent EP1534716B1, “HETEROBICYCLIC PYRAZOLE DERIVATIVES AS KINASE INHIBITORS” (priority 2002, dated 2004).

Common to all, as to assay type: biochemical
The target in one assay is T1, Aurora-2 (Homo sapiens, UniProt O14965).
T1 sequence (O14965 1-403): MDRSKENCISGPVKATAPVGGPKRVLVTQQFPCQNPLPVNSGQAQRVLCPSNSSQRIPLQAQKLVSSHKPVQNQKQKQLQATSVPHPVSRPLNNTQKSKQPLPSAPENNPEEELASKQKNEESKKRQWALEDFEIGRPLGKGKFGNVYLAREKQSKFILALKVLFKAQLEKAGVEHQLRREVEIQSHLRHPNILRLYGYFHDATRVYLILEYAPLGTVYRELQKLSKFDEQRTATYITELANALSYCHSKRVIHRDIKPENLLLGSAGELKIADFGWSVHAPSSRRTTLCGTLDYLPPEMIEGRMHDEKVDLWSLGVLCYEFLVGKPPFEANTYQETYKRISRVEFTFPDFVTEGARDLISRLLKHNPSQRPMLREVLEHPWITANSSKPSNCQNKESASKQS
In words: Inhibition assay of Aurora-2 activity (SPA). The note with it: 10 µM ATP, 60 minutes at room temperature. The procedure: (§1) The inhibiting activity of putative cdk/cyclin inhibitors and the potency of selected compounds is determined through a method of assay based on the use of the SPA technology (Amersham Pharmacia Biotech).
(§2) The assay consists of the transfer of radioactivity labelled phosphate moiety by the kinase to a biotinylated substrate. The resulting 33P-labelled biotinylated product is allowed to bind to streptavidin-coated SPA beads (biotin capacity 130 pmol/mg), and light emitted was measured in a scintillation counter.
(§3) Experimental data were analyzed by the computer program GraphPad Prizm using the four parameter logistic equation: [formula] where x is the logarithm of the inhibitor concentration, y is the response; y starts at bottom and goes to top with a sigmoid shape.
Inhibition assay of Aurora-2 activity
After 60 minutes at room temperature incubation, reaction was stopped and biotinylated peptide captured by adding 100 µl of bead suspension.
Stratification: 100 µl of CsC12 5 M were added to each well and let stand 4 hour before radioactivity was counted in the Top-Count instrument.
IC50 determination: see above

Another assay has as its target Cdc7/dbf4 (Homo sapiens, UniProt O00311). Nature of the assay: Inhibition assay of Cdc7/dbf4 activity (SPA). The note with it: 2 µM ATP, 60 minutes at 37°C. The method, then: Inhibition assay of Cdc7/dbf4 activity
The inhibition assay of Cdc7/dbf4 activity is performed according to the following protocol.
The Biotin-MCM2 substrate is trans-phosphorylated by the Cdc7/Dbf4 complex in the presence of ATP traced with γ^33-ATP. The phosphorylated Biotin-MCM2 substrate is then captured by Streptavidin-coated SPA beads and the extent of phosphorylation evaluated by β counting.
The inhibition assay of Cdc7/dbf4 activity was performed in 96 wells plate according to the following protocol.
To each well of the plate were added: • 10 µl substrate (biotinylated MCM2, 6 µM final concentration) • 10 µl enzyme (Cdc7/Dbf4, 17.9 nM final concentration) • 10 µl test compound (12 increasing concentrations in the nM to µM range to generate a dose-response curve) • 10 µl of a mixture of cold ATP (2 µM final concentration) and radioactive ATP (1/5000 molar ratio with cold ATP) was then used to start the reaction which was allowed to take place at 37°C.
Substrate, enzyme and ATP were diluted in 50 mM HEPES pH 7.9 containing 15 mM MgCl2, 2 mM DTT, 3 µM NaVO3, 2mM glycerophosphate and 0.2mg/ml BSA. The solvent for test compounds also contained 10% DMSO.
After incubation for 60 minutes, the reaction was stopped by adding to each well 100 µl of PBS pH 7.4 containing 50 mM EDTA, 1 mM cold ATP, 0.1% Triton X100 and 10 mg/ml streptavidin coated SPA beads.
After 20 min incubation, 110 µL of suspension were withdrawn and transferred into 96-well OPTIPLATEs containing 100 µl of 5M CsCl. After 4 hours, the plates were read for 2 min in a Packard TOP-Count radioactivity reader.
IC50 determination: see above.

The next assay has as its target PAK4 (Homo sapiens, UniProt O96013). In words: PAK4 inhibition.
In another assay the target is cdk2/Cyclin A (Homo sapiens, UniProt P24941). In words: Inhibition assay of cdk2/Cyclin A activity (SPA). The note with it: 10 µM ATP, 60 min at room temperature. The procedure:
as §1, §2
Inhibition assay of cdk2/Cyclin A activity
Kinase reaction: 4 µM in house biotinylated histone H1 (Sigma # H-5505) substrate, 10 µM ATP (0.1 microCi P^33γ-ATP), 1.1 nM Cyclin A/CDK2 complex, inhibitor in a final volume of 30 µl buffer (TRIS HCl 10 mM pH 7.5, MgCl2 10 mM, DTT 7.5 mM + 0.2 mg/ml BSA) were added to each well of a 96 U bottom. After incubation for 60 min at room temperature, the reaction was stopped by addition of 100 µl PBS buffer containing 32 mM EDTA, 500 µM cold ATP, 0.1% Triton X100 and 10mg/ml streptavidin coated SPA beads. After 20 min incubation, 110 µL of suspension were withdrawn and transferred into 96-well OPTIPLATEs containing 100 µl of 5M CsCl. After 4 hours, the plates were read for 2 min in a Packard TOP-Count radioactivity reader.
as §3

Sequence of PAK4 (O96013 whole entry, species assumed): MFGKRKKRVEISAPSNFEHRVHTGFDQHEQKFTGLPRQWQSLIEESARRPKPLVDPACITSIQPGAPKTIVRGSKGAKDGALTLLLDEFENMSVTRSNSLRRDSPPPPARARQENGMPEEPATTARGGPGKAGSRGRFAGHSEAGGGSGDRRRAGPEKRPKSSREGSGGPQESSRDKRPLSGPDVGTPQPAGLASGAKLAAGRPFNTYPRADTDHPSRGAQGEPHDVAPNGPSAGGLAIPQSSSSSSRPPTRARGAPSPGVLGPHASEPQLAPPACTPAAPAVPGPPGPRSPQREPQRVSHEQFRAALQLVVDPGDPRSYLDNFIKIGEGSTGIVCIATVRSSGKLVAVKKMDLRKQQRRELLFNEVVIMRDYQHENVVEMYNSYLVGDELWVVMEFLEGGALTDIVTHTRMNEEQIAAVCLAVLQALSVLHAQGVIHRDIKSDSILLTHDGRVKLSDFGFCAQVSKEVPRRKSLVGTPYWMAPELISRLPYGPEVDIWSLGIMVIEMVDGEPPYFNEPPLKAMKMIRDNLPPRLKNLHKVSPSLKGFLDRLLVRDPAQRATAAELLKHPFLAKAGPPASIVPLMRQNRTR
Sequence of Cdc7/dbf4 (O00311 whole entry, species assumed): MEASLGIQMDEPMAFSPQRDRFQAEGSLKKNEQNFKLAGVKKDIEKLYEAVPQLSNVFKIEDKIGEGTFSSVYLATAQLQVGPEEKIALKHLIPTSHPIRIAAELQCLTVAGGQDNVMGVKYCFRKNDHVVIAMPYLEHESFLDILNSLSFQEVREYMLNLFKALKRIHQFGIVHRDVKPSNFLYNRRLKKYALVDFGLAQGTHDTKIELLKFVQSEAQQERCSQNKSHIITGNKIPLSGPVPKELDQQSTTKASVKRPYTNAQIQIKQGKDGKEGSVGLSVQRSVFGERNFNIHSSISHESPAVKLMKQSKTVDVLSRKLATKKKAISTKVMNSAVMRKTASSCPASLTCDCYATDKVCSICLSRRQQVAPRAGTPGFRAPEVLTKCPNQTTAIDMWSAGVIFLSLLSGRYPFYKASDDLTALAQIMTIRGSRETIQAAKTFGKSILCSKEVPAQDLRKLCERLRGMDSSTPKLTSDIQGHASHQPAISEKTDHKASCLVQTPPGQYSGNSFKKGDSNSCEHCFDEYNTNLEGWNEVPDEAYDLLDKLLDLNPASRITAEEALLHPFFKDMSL
Sequence of Cdc7/dbf4 (Q9UBU7 whole entry partner, species assumed): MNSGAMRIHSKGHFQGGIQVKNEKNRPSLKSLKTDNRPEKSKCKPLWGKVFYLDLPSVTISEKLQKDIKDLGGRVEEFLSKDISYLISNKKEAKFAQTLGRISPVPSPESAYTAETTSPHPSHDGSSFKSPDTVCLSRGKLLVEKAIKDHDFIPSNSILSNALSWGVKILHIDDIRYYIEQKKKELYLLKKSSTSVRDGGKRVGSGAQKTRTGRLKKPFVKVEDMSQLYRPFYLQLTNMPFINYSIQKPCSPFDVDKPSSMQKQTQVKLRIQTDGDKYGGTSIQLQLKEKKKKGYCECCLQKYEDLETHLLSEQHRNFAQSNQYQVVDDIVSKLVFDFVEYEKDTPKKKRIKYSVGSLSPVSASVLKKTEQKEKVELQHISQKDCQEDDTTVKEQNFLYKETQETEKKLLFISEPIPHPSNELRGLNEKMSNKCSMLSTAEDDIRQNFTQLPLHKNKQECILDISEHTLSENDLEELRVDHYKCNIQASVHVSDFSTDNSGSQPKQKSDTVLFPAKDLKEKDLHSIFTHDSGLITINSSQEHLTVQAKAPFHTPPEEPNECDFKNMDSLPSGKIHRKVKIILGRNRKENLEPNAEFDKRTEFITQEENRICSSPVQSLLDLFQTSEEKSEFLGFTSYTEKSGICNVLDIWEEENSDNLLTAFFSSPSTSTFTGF

In the case of `COC(=O)c1cc2[nH]nc(NC(=O)c3ccc(N4CCOCC4)cc3)c2s1` [Compound 52, methyl 3-[(4-morpholin-4-ylbenzoyl)amino]-1H-thieno[3,2-c]pyrazole-5-carboxylate], the IC50 on Aurora-2 was less than 100 nM; against Cdc7/dbf4, less than 1000 nM; against PAK4, less than 500 nM.

Consider `O=C(Nc1n[nH]c2cc(C(=O)O)sc12)c1ccc(N2CCOCC2)cc1` [Compound 57, 3-[(4-morpholin-4-ylbenzoyl)amino]-1H-thieno[3,2-c]pyrazole-5-carboxylic acid], for which the IC50 was less than 100 nM against Aurora-2, less than 1000 nM against Cdc7/dbf4 and less than 500 nM against cdk2/Cyclin A.

Consider `CN1CCN(c2ccc(C(=O)Nc3n[nH]c4cc(C(=O)NCc5cccn5C)sc34)cc2)CC1` [Compound 123, 3-{[4-(4-methylpiperazin-1-yl)benzoyl]amino}-N-[(1-methyl-1H-pyrrol-2-yl)methyl]-1H-thieno[3,2-c]pyrazole-5-carboxamide], for which the half-maximal inhibitory concentration (IC50) is less than 100 nM against Aurora-2 and less than 1000 nM against Cdc7/dbf4.

`CN1CCN(c2ccc(C(=O)Nc3n[nH]c4cc(C(=O)NCc5ccoc5)sc34)cc2)CC1` [Compound 124, N-(3-furylmethyl)-3-{[4-(4-methylpiperazin-1-yl)benzoyl]amino}-1H-thieno[3,2-c]pyrazole-5-carboxamide]: the 50% inhibitory concentration (IC50) is less than 100 nM on Aurora-2, less than 1000 nM against Cdc7/dbf4 and less than 500 nM at cdk2/Cyclin A.

Turning to `CC[C@@H](NC(=O)c1cc2[nH]nc(NC(=O)c3ccc(N4CCOCC4)cc3)c2s1)c1ccccc1` [Compound 131, 3-[(4-morpholin-4-ylbenzoyl)amino]-N-[(1R)-1-phenylpropyl]-1H-thieno[3,2-c]pyrazole-5-carboxamide], the IC50 against Aurora-2 was less than 100 nM; on PAK4, less than 500 nM.

Turning to `O=C(Nc1n[nH]c2cc(C(=O)NCc3cccc(F)c3)sc12)c1ccc(N2CCOCC2)cc1` [Compound 132, N-(3-fluorobenzyl)-3-[(4-morpholin-4-ylbenzoyl)amino]-1H-thieno[3,2-c]pyrazole-5-carboxamide], the IC50 against Aurora-2 was less than 100 nM; against PAK4, less than 500 nM.

With `O=C(Nc1n[nH]c2cc(C(=O)NCc3ccc(F)cc3)sc12)c1ccc(N2CCOCC2)cc1` [Compound 133, N-(4-fluorobenzyl)-3-[(4-morpholin-4-ylbenzoyl)amino]-1H-thieno[3,2-c]pyrazole-5-carboxamide], the figures for the IC50 at Aurora-2 and at PAK4 were less than 100 nM and less than 500 nM, respectively.

`O=C(Nc1n[nH]c2cc(C(=O)O)oc12)c1ccc(N2CCOCC2)cc1` [Compound 161, 3-[(4-morpholin-4-ylbenzoyl)amino]-1H-furo[3,2-c]pyrazole-5-carboxylic acid]: the IC50 at Aurora-2 was less than 100 nM; against Cdc7/dbf4, less than 1000 nM; against cdk2/Cyclin A, less than 500 nM.

`CN1CCN(c2ccc(C(=O)Nc3n[nH]c4cc(C(=O)O)oc34)cc2)CC1` [Compound 162, 3-{[4-(4-methylpiperazin-1-yl)benzoyl]amino}-1H-furo[3,2-c]pyrazole-5-carboxylic acid]: the IC50 is less than 100 nM at Aurora-2 and less than 1000 nM at Cdc7/dbf4.

Consider `O=C(Nc1n[nH]c2cc(C(=O)O)oc12)c1ccc(F)cc1` [Compound 163, 3-[(4-fluorobenzoyl)amino]-1H-furo[3,2-c]pyrazole-5-carboxylic acid], for which the IC50 against Aurora-2 is less than 100 nM; at PAK4, less than 500 nM.

`CCC(NC(=O)c1cc2[nH]nc(NC(=O)c3ccc(N4CCOCC4)cc3)c2o1)c1ccccc1` (stereo not drawn) [Compound 164, 3-[(4-morpholin-4-ylbenzoyl)amino]-N-[-1-phenylpropyl]-1H-furo[3,2-c]pyrazole-5-carboxamide]: the IC50 is less than 100 nM at Aurora-2, less than 500 nM against PAK4 and less than 500 nM at cdk2/Cyclin A.

Turning to `CCC(NC(=O)c1cc2[nH]nc(NC(=O)c3ccc(N4CCN(C)CC4)cc3)c2o1)c1ccccc1` (stereo not drawn) [Compound 165, 3-{[4-(4-methylpiperazin-1-yl)benzoyl]amino}-N-[1-phenylpropyl]-1H-furo[3,2-c]pyrazole-5-carboxamide], the IC50 was less than 100 nM against Aurora-2, less than 1000 nM on Cdc7/dbf4 and less than 500 nM against cdk2/Cyclin A.

As usually defined, the IC50 is the concentration that inhibits the measured activity by half. Higher therefore signals weaker potency in that assay.
